Data as given in patent US8884023B2, “Pyrano [3,2-D][1,3]thiazole as glycosidase inhibitors” (priority 2011, dated 2014).
Where two headings read alike, the source gives them in different places.

Columns and labels:
[1] = biological target: T1, His-Tagged hOGA (human O-GlcNAcase) (Homo sapiens, UniProt O60502); assay: biochemical
T1 sequence (O60502 1-916): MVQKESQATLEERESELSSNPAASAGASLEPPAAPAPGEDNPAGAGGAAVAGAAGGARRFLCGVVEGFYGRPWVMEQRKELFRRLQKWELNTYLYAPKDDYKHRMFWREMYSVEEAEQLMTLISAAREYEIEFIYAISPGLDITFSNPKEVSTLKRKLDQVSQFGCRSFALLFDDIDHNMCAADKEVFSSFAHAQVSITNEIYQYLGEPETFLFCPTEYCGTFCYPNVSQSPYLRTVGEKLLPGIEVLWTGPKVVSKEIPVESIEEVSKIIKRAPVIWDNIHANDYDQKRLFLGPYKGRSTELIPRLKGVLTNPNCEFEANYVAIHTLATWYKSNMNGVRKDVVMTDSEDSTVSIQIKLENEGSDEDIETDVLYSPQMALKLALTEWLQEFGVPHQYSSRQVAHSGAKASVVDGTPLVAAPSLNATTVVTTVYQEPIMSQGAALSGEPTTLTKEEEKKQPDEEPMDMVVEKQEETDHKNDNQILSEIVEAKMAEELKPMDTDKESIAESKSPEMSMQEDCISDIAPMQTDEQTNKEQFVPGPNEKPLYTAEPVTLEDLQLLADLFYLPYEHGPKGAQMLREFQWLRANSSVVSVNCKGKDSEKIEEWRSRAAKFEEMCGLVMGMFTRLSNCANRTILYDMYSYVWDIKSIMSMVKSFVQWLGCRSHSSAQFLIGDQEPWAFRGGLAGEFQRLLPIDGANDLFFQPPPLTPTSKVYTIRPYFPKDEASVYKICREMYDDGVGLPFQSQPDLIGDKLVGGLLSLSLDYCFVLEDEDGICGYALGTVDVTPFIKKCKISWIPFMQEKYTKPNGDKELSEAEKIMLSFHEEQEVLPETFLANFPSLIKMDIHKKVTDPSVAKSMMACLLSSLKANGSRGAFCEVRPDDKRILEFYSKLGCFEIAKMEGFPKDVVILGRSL

O-GlcNAcase = biological target: T2, O-GlcNAcase (UniProt Q8VIJ5); assay type: cell-based
T2 sequence (Q8VIJ5 1-916): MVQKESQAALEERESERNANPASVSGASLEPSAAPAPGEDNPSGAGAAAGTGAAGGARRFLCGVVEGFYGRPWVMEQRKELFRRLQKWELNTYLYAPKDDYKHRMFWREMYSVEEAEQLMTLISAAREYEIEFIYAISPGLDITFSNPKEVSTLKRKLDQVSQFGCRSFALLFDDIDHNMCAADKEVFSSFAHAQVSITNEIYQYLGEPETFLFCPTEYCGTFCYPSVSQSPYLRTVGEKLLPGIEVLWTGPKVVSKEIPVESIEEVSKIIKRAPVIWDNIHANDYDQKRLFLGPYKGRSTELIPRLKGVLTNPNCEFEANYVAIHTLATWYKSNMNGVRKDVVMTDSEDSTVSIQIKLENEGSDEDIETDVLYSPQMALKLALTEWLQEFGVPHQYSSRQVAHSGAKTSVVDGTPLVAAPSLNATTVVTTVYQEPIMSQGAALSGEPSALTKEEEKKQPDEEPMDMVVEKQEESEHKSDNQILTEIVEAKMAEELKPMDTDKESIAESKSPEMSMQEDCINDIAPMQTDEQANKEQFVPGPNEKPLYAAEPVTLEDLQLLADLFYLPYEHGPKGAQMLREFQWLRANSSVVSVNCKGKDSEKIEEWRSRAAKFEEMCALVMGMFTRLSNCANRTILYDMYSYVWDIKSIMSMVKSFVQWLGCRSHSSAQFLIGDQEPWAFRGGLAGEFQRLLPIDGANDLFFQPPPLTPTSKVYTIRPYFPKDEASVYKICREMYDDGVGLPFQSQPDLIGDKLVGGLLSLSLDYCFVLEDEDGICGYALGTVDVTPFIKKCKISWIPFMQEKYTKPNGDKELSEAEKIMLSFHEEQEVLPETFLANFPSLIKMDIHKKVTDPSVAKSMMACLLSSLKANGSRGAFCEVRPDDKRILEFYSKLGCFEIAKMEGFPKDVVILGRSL
Description: Assay for the Determination of Cellular Activity for Compounds that Inhibit O-GlcNAcase Activity
Inhibition of O-GlcNAcase, which removes O-GlcNAc from cellular proteins, results in an increase in the level of O-GlcNAcylated proteins in cells. An increase in the O-GlcNAcylation of cellular proteins can be measured by an antibody, such as CTD110.6, that binds O-GlcNAcylated proteins. The amount of O-GlcNAcylated protein can be determined by the enzyme linked immunoabsorbant assay (ELISA) technique.
Cell lines, such as rat B35, rat PC-12 and human SH-SY5Y cells, expressing endogenous levels of O-GlcNAcase, could be utilized. Cells were plated in 96-well plates at a density of approximately 10,000 cells/well. Compounds to be tested were dissolved in DMSO as 10 mM stock solution, and then diluted first with DMSO and then culture media using the Bravo workstation. Cells were treated with diluted compounds for approximately 16 hours. […] To prepare a cell lysate, the media from compound treated cells were removed, and the cells were washed once with Dulbecco's phosphate buffered saline (DPBS) and then lysed for 30 minutes in 100 μl/well of ice cold RIPA buffer containing a protease inhibitor cocktail.
The ELISA portion of the assay was performed in EIA/RIA plates that were coated overnight at 4 C with 80 μl/well of cell lysate. The following day the wells were washed 6 times with 200 μl of wash buffer (0.05% Tween20 in DPBS). The wells were blocked with 200 μl blocking buffer (1% BSA, 0.05% Tween20 in DPBS) for 1 h at room temperature. Each well was then washed 6 times with 200 μl of wash buffer. The anti-O-GlcNAc antibody CTD110.6 (Covance, Princeton, N.J.) was added at 100 μl/well at a concentration of 10 μg/ml. The plates were incubated for 1 h at room temperature. The wells were then washed 6 times with 200 μl/well of wash buffer. To detect the amount of CTD110.6 bound to the cell lysate, alkaline phosphatase conjugated goat anti-mouse IgM (diluted 1:500 in blocking buffer) was added at 100 μl/well and incubated for 45 min at room temperature. Each well was then washed 6 times with 200 μl/well of wash buffer. PNPP tablets dissolved in diethanolamine substrate buffer and 100 μl/well were added as detection reagent.
The amount of O-GlcNAcylated protein, as detected by the ELISA assay, was plotted for each concentration of test compound using standard curve fitting algorithms for sigmoidal dose response curves. The values for a four parameter logistic curve fit of the data were determined, with the inflection point of the curve being the potency value for the test compound.

[2] = read-out: OGA enzyme inhibition (IC50)
[3] = cells expressing endogenous O-GlcNAcase (such as rat B35, rat PC-12, human SH-SY5Y), approximately 16 hours treatment; read-out: OGA cellular inhibition (EC50)

For `CCNC1=N[C@@H]2[C@@H](O)[C@H](O)[C@@H](Cn3cc(COc4ccc(F)cc4)nn3)O[C@@H]2S1` [compound 93], the IC50 [1, 2] was < 100 nM and the EC50 (O-GlcNAcase; [3]) was > 1000 nM.
For `CCNC1=N[C@@H]2[C@@H](O)[C@H](O)[C@@H](Cn3cc(COc4ccc(C(C)(C)C)cc4)nn3)O[C@@H]2S1` [compound 94], the IC50 [1] was 100 to 500 nM and the EC50 (O-GlcNAcase; [3]) was 100 to 500 nM.
For `CCNC1=N[C@@H]2[C@@H](O)[C@H](O)[C@@H](Cn3cc(-c4ccccc4)nn3)O[C@@H]2S1` [compound no. 2, (3aR,5R,6S,7R,7aR)-2-(ethylamino)-5-[(4-phenyl-1H-1,2,3-triazol-1-yl)methyl]-5,6,7,7a-tetrahydro-3aH-pyrano[3,2-d][1,3]thiazole-6,7-diol], the IC50 [1, 2] was 100 to 500 nM and the EC50 (O-GlcNAcase; [3]) was > 1000 nM.
With `CCNC1=N[C@@H]2[C@@H](O)[C@H](O)[C@@H](COC(=O)OC(C)(C)C)O[C@@H]2S1` [compound no. 3, tert-butyl [(3aR,5R,6S,7R,7aR)-2-(ethylamino)-6,7-dihydroxy-5,6,7,7a-tetrahydro-3aH-pyrano[3,2-d][1,3]thiazol-5-yl]methyl carbonate] the IC50 [1, 2] was 100 to 500 nM and the EC50 (O-GlcNAcase; [3]) was < 100 nM.
In the case of `CCNC1=N[C@@H]2[C@@H](O)[C@H](O)[C@@H](CF)O[C@@H]2S1` [compound no. 4, (3aR,5S,6S,7R,7aR)-2-(ethylamino)-5-(fluoromethyl)-5,6,7,7a-tetrahydro-3aH-pyrano[3,2-d][1,3]thiazole-6,7-diol], the IC50 [1] is reported as < 100 nM and the EC50 (O-GlcNAcase; read-out: OGA cellular inhibition (EC50); cells expressing endogenous O-GlcNAcase (such as rat B35, rat PC-12, human SH-SY5Y), approximately 16 hours treatment) is reported as 100 to 500 nM.
In the case of `CCNC1=N[C@@H]2[C@@H](O)[C@H](O)[C@@H](CBr)O[C@@H]2S1` [compound no. 5, (3aR,5S,6S,7R,7aR)-5-(bromomethyl)-2-(ethylamino)-5,6,7,7a-tetrahydro-3aH-pyrano[3,2-d][1,3]thiazole-6,7-diol], the IC50 [1, 2] is reported as < 100 nM and the EC50 (O-GlcNAcase; [3]) is reported as 100 to 500 nM.
`CCNC1=N[C@@H]2[C@@H](O)[C@H](O)[C@@H](Cn3cc(CCc4ccccc4)nn3)O[C@@H]2S1` [compound no. 6, (3aR,5R,6S,7R,7aR)-2-(ethylamino)-5-{[4-(2-phenylethyl)-1H-1,2,3-triazol-1-yl]methyl}-5,6,7,7a-tetrahydro-3aH-pyrano[3,2-d][1,3]thiazole-6,7-diol] was tested, and the IC50 [1] was < 100 nM and the EC50 (O-GlcNAcase; [3]) was 500 to 1000 nM.
`CCNC1=N[C@@H]2[C@@H](O)[C@H](O)[C@@H](Cn3cc(-c4ccccn4)nn3)O[C@@H]2S1` [compound no. 7, (3aR,5R,6S,7R,7aR)-2-(ethylamino)-5-[(4-pyridin-2-yl-1H-1,2,3-triazol-1-yl)methyl]-5,6,7,7a-tetrahydro-3aH-pyrano[3,2-d][1,3]thiazole-6,7-diol] was tested, and the IC50 [1, 2] was 100 to 500 nM and the EC50 (O-GlcNAcase; [3]) was > 1000 nM.
`CCNC1=N[C@@H]2[C@@H](O)[C@H](O)[C@@H](Cn3cc(C(=O)OC)nn3)O[C@@H]2S1` [compound no. 10, Methyl 1-{[(3aR,5R,6S,7R,7aR)-2-(ethylamino)-6,7-dihydroxy-5,6,7,7a-tetrahydro-3aH-pyrano[3,2-d][1,3]thiazol-5-yl]methyl}-1H-1,2,3-triazole-4-carboxylate] showed an IC50 [1, 2] of 100 to 500 nM and an EC50 (O-GlcNAcase; [3]) of 500 to 1000 nM.
For `CCN(C(=O)OC(C)(C)C)C1=N[C@@H]2[C@@H](O)[C@H](O)[C@@H](CO)O[C@@H]2S1` [compound no. 12, Tert-butyl [(3aR,5R,6S,7R,7aR)-6,7-dihydroxy-5-(hydroxymethyl)-5,6,7,7a-tetrahydro-3aH-pyrano[3,2-d][1,3]thiazol-2-yl]ethylcarbamate], the IC50 [1] was < 100 nM and the EC50 (O-GlcNAcase; [3]) was < 100 nM.
`CCNC1=N[C@@H]2[C@@H](O)[C@H](O)[C@@H](Cn3cc(Cc4ccccc4)nn3)O[C@@H]2S1` [compound no. 14, (3aR,5R,6S,7R,7aR)-5-[(4-benzyl-1H-1,2,3-triazol-1-yl)methyl]-2-(ethylamino)-5,6,7,7a-tetrahydro-3aH-pyrano[3,2-d][1,3]thiazole-6,7-diol] was tested, and the IC50 [1] was < 100 nM and the EC50 (O-GlcNAcase; [3]) was 100 to 500 nM.
For `C/C=C/C(=O)NC1=N[C@@H]2[C@@H](O)[C@H](O)[C@@H](CO)O[C@@H]2S1` [compound no. 19, (2E)-N-[(3aR,5R,6S,7R,7aR)-6,7-dihydroxy-5-(hydroxymethyl)-5,6,7,7a-tetrahydro-3aH-pyrano[3,2-d][1,3]thiazol-2-yl]but-2-enamide], the IC50 [1, 2] was 500 to 1000 nM and the EC50 (O-GlcNAcase; [3]) was > 1000 nM.
For `CCNC1=N[C@@H]2[C@@H](O)[C@H](O)[C@@H](Cn3cc(CCCc4ccccc4)nn3)O[C@@H]2S1` [compound no. 30, (3aR,5R,6S,7R,7aR)-2-(ethylamino)-5-{[4-(3-phenylpropyl)-1H-1,2,3-triazol-1-yl]methyl}-5,6,7,7a-tetrahydro-3aH-pyrano[3,2-d][1,3]thiazole-6,7-diol], the IC50 [1] was 100 to 500 nM and the EC50 (O-GlcNAcase; [3]) was > 1000 nM.
With `CCNC1=N[C@@H]2[C@@H](O)[C@H](O)[C@@H](CCl)O[C@@H]2S1` [compound no. 32, (3aR,5S,6S,7R,7aR)-5-(chloromethyl)-2-(ethylamino)-5,6,7,7a-tetrahydro-3aH-pyrano[3,2-d][1,3]thiazole-6,7-diol] the IC50 [1, 2] was < 100 nM and the EC50 (O-GlcNAcase; [3]) was < 100 nM.
With `CCNC1=N[C@@H]2[C@@H](OS(C)(=O)=O)[C@H](O)[C@@H](CO)O[C@@H]2S1` [compound no. 46, (3aR,5R,6R,7R,7aR)-2-(ethylamino)-6-hydroxy-5-(hydroxymethyl)-5,6,7,7a-tetrahydro-3aH-pyrano[3,2-d][1,3]thiazol-7-yl methanesulfonate] the IC50 [1, 2] was 100 to 500 nM and the EC50 (O-GlcNAcase; [3]) was 100 to 500 nM.
